Results from US5714516A, “Anti-viral agents” (priority 1992, dated 1998).
Converted amounts (≈) assume the structure as drawn. “Also recorded” adds a separate entry of the source. Read-outs that look alike come from different tables or passages of the source.

Tests used:
[1] = tested on: Varicella zoster virus (VZV); experiment: VZV plaque reduction assay in Mewo cells; assay type: cell-based, varicella zoster virus (VZV) strain H-551; details: for Inhibition of VZV (in words): Example 1, 2 to 200 μM
Method: (§1) The assay system used was the Mewo cell plaque reduction assay of VZV, C. Grose and P. A. Brunell, Infection & Immunity, 19, 199-203 (1978). […] Compounds were tested at levels from 2 to 200 μM.
(§2) The VZV plaque assay of Example 1 was repeated using a variety of myristic acid analogues. Briefly, sub-confluent Mewo monolayers (Grose and Brunell, 1978, supra) in 24 well plates were infected with approximately 40 P.F.U. (Plaque Forming Units) of cell-free varicella zoster virus (VZV) strain H-551. After an adsorption period of 2 hours the cells were overlaid with 750 μl of MEM (Minimum Essential Medium (Eagle)) supplemented with 2% fetal calf serum and 1% non-essential amino acids. The anti-viral compounds to be tested were solubilized in ethanol, added to final concentrations of 0, 2, 20 or 200 μM and the wells then overlaid with a further 750 μl of MEM supplemented with 2% fetal calf serum, 1% non-essential amino acids and 0.3% agarose. Mock infected wells were also included as controls to test for cytotoxicity. All plates were incubated at 32° C. with 5% CO2. Eight days post infection the monolayers were fixed in 4% formaldehyde and stained with crystal violet.
(§3) The effect of 2-hydroxymyristic acid (2-HM) on VZV or HIV when solubilized in a variety of solvents was observed using the methods approved for the Medical Research Council AIDS Directed Programme as described in H. C. Holmes et al., Antiviral Chem. & Chemother. (1991), 2(5), 287-293, using concentrations of 2 HM from 0.08to 1000 μM. Additionally, back titration assays of HIV were carried out by adding supernatants from treated infected cells to uninfected C8166 cells at increasing dilutions. Assays were scored by recording the presence or absence of syncytium formation.
(§4) Preparation and assay of VZV was carried out as described previously in Examples 1 and 3.
(§5) Stocks of 2-HM were prepared from crystalline solid by dissolving in ethanol or in dimethyl sulphoxide (DMSO) to a concentration of 20 mM to 100 mM, and were stored at -20° C. prior to addition to culture media.

Mewo cells = experiment: Cytotoxicity in Mewo cells (monolayer) in the VZV plaque assay; parameters: Toxicity in Mewo Cells: key to the marks not given beside the values
Method: as §1, §2, §4

in vitro = experiment: in vitro; parameters: Toxicity in Mewo Cells: key to the marks not given beside the values; details: human, mewo cells
Method: as §1, §2, §4

[2] = tested on: VZV viral antigen synthesis; experiment: Synthesis of VZV viral antigen assayed by immunoblotting in infected MRC5 cells; assay type: cell-based, Varicella zoster virus (VZV)
Method: In order to characterise the nature of the antiviral effect, the effect of 2-hydroxymyristic acid on the synthesis of viral antigen was assayed by immunoblotting.

MRC5 monolayer = experiment: Total protein synthesis by incorporation of 35S methionine in infected MRC5 cells (cytotoxicity); assay type: cell-based
Method: (§6) Cytotoxicity was assessed by the incorporation of radiolabelled precursors to assay protein synthesis and myristoylation in the infected cell.

myristoylation = experiment: Myristoylation in the infected cell by incorporation of radiolabelled precursors; assay type: cell-based; details: 0.1 to 10×IC50
Method: as §6

HIV [3] = experiment: HIV antigen assay; assay type: cell-based; details: for IC50: Human immunodeficiency virus 1, Table 2
Method: as §3
(§7) The HIV assays were performed at three of the MRC approved laboratories (Mill Hill, Cambridge and St. Bartholomew's Hospital).
as §5, with “media. Concentrations of 2-HM greater than 80 to 100 μM are imprecise, since 2-HM crystallises from aqueous solutions at such levels.” for “media.”

HIV [4] = experiment: HIV virus titration (back titration, syncytium formation in C8166 cells); assay type: cell-based; details: Human immunodeficiency virus 1, C8166; Table 2; Ethanol; Mill Hill
Method: as §3, §7
as §5, with “media. Concentrations of 2-HM greater than 80 to 100 μM are imprecise, since 2-HM crystallises from aqueous solutions at such levels.” for “media.”

[5] = Cytotoxicity to C8166 cells in HIV assays; assay type: cell-based; details: human, c8166 cells, Table 2
Method: as §3, §7
as §5, with “media. Concentrations of 2-HM greater than 80 to 100 μM are imprecise, since 2-HM crystallises from aqueous solutions at such levels.” for “media.”

C8166 cells = experiment: Cytotoxicity to C8166 cells in HIV assays; assay type: cell-based; details: St. Bartholomew's and Mill Hill; only above levels at which 2-HM would crystallise from aqueous solution
Method: as §3, §7
as §5, with “media. Concentrations of 2-HM greater than 80 to 100 μM are imprecise, since 2-HM crystallises from aqueous solutions at such levels.” for “media.”

[6] = Crystallisation from aqueous solution / medium; assay type: physicochemical
HIV [7] = details: Saermark et al.; Bryant et al.; cited from earlier work
[8] = Human alphaherpesvirus 3, MeWo, 192 h, read-out: IC50 Against VZV (μM)
[9] = Human alphaherpesvirus 3, MeWo, 192 h, Table 1, Example 3, solubilized in ethanol, 0, 2, 20 or 200 μM, eight days post infection, Mewo cells, read-out: IC50 Against VZV
[10] = Table 1, Example 3, solubilized in ethanol, 0, 2, 20 or 200 μM, eight days post infection, Mewo cells, read-out: IC50 Against VZV
[11] = Table 1, Example 3, solubilized in ethanol, 0, 2, 20 or 200 μM, eight days post infection, Mewo cells

Compound: CCCCCCCCCCCCCCC(Br)C(=O)O (stereo not drawn) [2-bromopalmitic acid]
- IC50 [1, 8]: 0.89 µM
- Toxic at 200 μM (in words) (Mewo cells; Example 3, at 200 μM): toxic at 200 μM
- Toxicity in Mewo Cells (Mewo cells; Table 1, Example 3, 0, 2, 20 or 200 μM, eight days post infection): +++

Compound: CCCCCCCCCCCCC(O)C(=O)O (racemic) [2-hydroxymyristic acid]
- Inhibition of VZV (in words) [1]: showed inhibition at 20 and 200 μM
- IC50 ([1]; Human alphaherpesvirus 3, MeWo, 8 μM lower end to 33 μM upper end, read-out: Range of IC50 against VZV over Examples): 8 to 33 µM
- IC50 [1, 9]: 21.5 µM
- IC50 ([1]; Human alphaherpesvirus 3, MeWo, Table 2, DMSO, St. Bartholomew's, read-out: IC50, VZV plaque reduction): > 200 µM
- IC50 ([1]; Human alphaherpesvirus 3, MeWo, Table 2, Ethanol, St. Bartholomew's, read-out: IC50, VZV plaque reduction): 33.1 µM
- IC50 ([1]; Human alphaherpesvirus 3, MeWo, read-out: 50% inhibitory concentration (IC50), VZV plaque reduction): 8 µM
- Anti-viral effect against VZV (in words) ([1]; solubilised in DMSO): no significant anti-viral effect
- Inhibition of VZV replication (in words) ([1]; solubilised in ethanol, St. Bartholomew's Hospital): inhibits the replication
- CC50 (in vitro): > 200 µM
- Cytotoxicity in the assay (in words) (Mewo cells): failed to be cytotoxic
- CC50 (Mewo cells; human, mewo cells): > 200 µM
- Effect on syncytium formation ([2]; MRC5 monolayers, suggested by results): inhibit syncytium formation
- Reduction in viral antigen synthesis ([2]; inoculum one infected to four uninfected cells, three days post-infection, 80 μM (10×IC50)): no reduction in antigen synthesis was apparent
- Inhibition of viral antigen synthesis at reduced inoculum ([2]; reduced initial inoculum, harvest time increased, inversely proportional to inoculum): inhibition was apparent
- Total protein synthesis (35S methionine incorporation) (MRC5 monolayer; 1:4 inoculum, 0.1 to 10×IC50): unaffected at any concentration tested
- Cellular toxicity (in words) (MRC5 monolayer; up to ten times greater than the IC50): not toxic to cells; also recorded: without producing significant cellular toxicity
- Inhibition of myristoylation (myristoylation): non-specific inhibition of myristoylation
- IC50 (HIV [3]; DMSO, St. Bartholomew's): 220 µM
- IC50 (HIV [3]; Ethanol, Mill Hill): 2 µM
- IC50 (HIV [3]; Ethanol, St. Bartholomew's): 31.4 µM
- Anti-viral effect against HIV on re-test (in words) (HIV [3]; ethanol as the solvent, St. Bartholomew's Hospital): a clear anti-viral effect was apparent
- Anti-viral effect against HIV (in words) (HIV [3]; solubilised in DMSO, St. Bartholomew's Hospital): lack of any significant anti-viral effect
- Inhibition of HIV replication (in words) (HIV [3]; solubilised in ethanol, Mill Hill): inhibits the replication
- IC50 (HIV [4]): 3.9 µM
- CC50 ([5]; DMSO, St. Bartholomew's, read-out: TC50, HIV antigen assay): > 400 µM
- CC50 ([5]; Ethanol, Mill Hill, antigen assay, read-out: TC50, HIV antigen assay): 192 µM
- CC50 ([5]; Ethanol, Mill Hill, virus titration, read-out: TC50, HIV virus titration): 192 µM
- CC50 ([5]; Ethanol, St. Bartholomew's, read-out: TC50, HIV antigen assay): 168 µM
- Toxicity to C8166 cells (in words) (C8166 cells): toxicity of 2-HM to C8166 cells was detected
- solubility ([6]; aqueous solution, aqueous solutions, read-out: Concentration above which 2-HM crystallises from aqueous solutions): 80 to 100 µM (≈ 19.5 to 24.4 µg/mL)
- Crystalline deposits ([6]; at the highest concentration, VZV plaque assay): crystalline deposits were observed

Compound: CCCCCCCCCC(OCC)C(=O)O (stereo not drawn) [2-(ethyloxy)undecanoic acid, reference compound]
- IC50 [1, 9]: 14.4 µM

Compound: COCCCCCCCCCCCC(=O)O [13-oxamyristic acid]
- Inhibition of HIV release from infected cells (in words) (HIV [7]): effective

Compound: CCCCCCCCCCCCC(O)C(=O)O (single isomer, unassigned) [2-hydroxytetradecanoic acid (+)]
- IC50 [1, 10]: 48.7 µM
- Cytotoxicity in the assay (in words) (Mewo cells): failed to be cytotoxic

Compound: CCCCCCCCCCCCC(Br)C(=O)O (stereo not drawn) [2-bromotetradecanoic acid, reference compound]
- IC50 [1, 9]: 14.8 µM

Compound: CCCCCCCCCCCCC(N=[N+]=[N-])C(=O)O (stereo not drawn) [2-azidotetradecanoic acid, reference compound]
- IC50 Against VZV (μM) [1, 11]: unobtainable

Compound: CCCCCCCCCCCCCCC(O)C(=O)O (stereo not drawn) [2-hydroxypalmitic acid]
- IC50 [1, 9]: 14.2 µM

Compound: COCCCCCCCCCCCC(=O)O [12-(methyloxy)dodecanoic acid, reference compound]
- IC50 [1, 8]: 17.3 µM

Compound: CCCCCCCCCCCCCC(=O)NC [myristoylmethylamide, reference compound]
- IC50 [1, 9]: 56.6 µM

Compound: CCNCCCCCCCCCCC(=O)O [11-(ethylamino)undecanoic acid, reference compound]
- IC50 Against VZV (μM) [1, 11]: unobtainable

Compound: CCCCNCCCCCCCCC(=O)O [9-(butylamino)nonanoic acid, reference compound]
- IC50 [1, 9]: 164 µM

Compound: O=C(O)C1CO1 (stereo not drawn) [glycidic acid, reference compound]
- IC50 [1, 9]: 4.5 µM

Compound: CCCCCCCCCCCCCC(=O)NCC(OCC)OCC [N-myristoylglycinaldiethylacetal (GoA), N-myristoylglycinaldiethylacetal, reference compound]
- Inhibition of VZV (in words) [1]: did not cause 50% inhibition of virus at any concentration tested
- IC50 Against VZV (μM) [1, 11]: unobtainable

Compound: CCCCCCCCCCCCC(O)C(=O)O (single isomer, unassigned) [2-hydroxytetradecanoic acid (-)]
- IC50 [1, 10]: 11.5 µM
- Cytotoxicity in the assay (in words) (Mewo cells): failed to be cytotoxic

Compound: CCSCCCCCCCCCCC(=O)O [11-(ethylthio)undecanoic acid, reference compound]
- IC50 Against VZV (μM) [1, 11]: unobtainable
